In paper PMC11475281, “A Novel Liver Cancer-Selective Histone Deacetylase Inhibitor Is Effective against Hepatocellular Carcinoma and Induces Durable Responses with Immunotherapy” (ACS Pharmacology & Translational Science, 2024):

tested on: A549 (lung adenocarcinoma); test: MTS cell viability assay, 72 h; type: cell-based; settings: Table S2; read-out: Anti-proliferation IC50 A549
From the text: (§1) We then screened STR-V-53 and all the synthesized glycosylated HDACi for their effects on the viability of three cell lines: A549 (lung adenocarcinoma), Hep-G2 (HCC), and VERO (a normal kidney epithelial cell). We used SORA and STR-V-48, a previously disclosed nonglycosylated compound, as controls.[25] […] Additionally, compound STR-V-167, the peracetylated analog of STR-V-53, largely retained the Hep-G2 selectivity of STR-V-53 (Table S2). Subsequently, we evaluated the effects of STR-V-53 on cell proliferation using a panel of human HCC cell lines (Huh-7, SK-Hep-1, and Hep3B) as well as Kupffer cells (liver resident macrophages) by MTS assay. We observed that STR-V-53 is 7- to 16-fold more cytotoxic against these HCC cell lines relative to the Kupffer cells (Figure 1g). […] Based on their weak HDAC and cell proliferation inhibition activities, we de-emphasized further evaluation of the class III compounds.
(§2) 10-017-CV), supplemented with 10% fetal bovine serum (FBS) (Corning, 35-010-CV). Hep-G2 cells were cultured in phenol red-free Minimum Essential Medium (MEM) (Corning, 17-305-CV), supplemented with 10% fetal bovine serum (FBS). SK-Hep-1 in ATCC-formulated EMEM (ATCC® 30–2003™); Huh-7 in DMEM (containing 4 mM L-glutamine and 1 g/L glucose) with […]
(§3) Kupffer Cell Media (Sekisui XenoTech, LLC, Cat. #K8700). Cells were seeded into a 96-well plate (2000 counts/100uL) for 24 h prior to treatment and then treated with various drug concentrations for 72 h. All drugs were dissolved in media with DMSO concentration maintained at 1%. The effect of compounds on cell viability was measured using the MTS assay (CellTiter 96 Aqueous One Solution and CellTiter 96 Non-Radioactive Cell Proliferation Assays, Promega, Madison, WI) as described by the manufacturer. IC50s were determined using Prism GraphPad 8. […]

With `CC(=O)OCC1OC(Oc2ccc(-c3cn(CCCCCCC(=O)NO)nn3)cc2)C(OC(C)=O)C(OC(C)=O)C1OC(C)=O` (stereo not drawn) [STR-V-167] as the compound, how does the IC50 read?
The IC50 was greater than 100000 nM.

Which IC50 does the source give for `CC(=O)OCC1OC(Oc2ccc(-c3cn(CCCCCCC(=O)NO)nn3)cc2)C(OC(C)=O)C(OC(C)=O)C1OC(C)=O` (stereo not drawn) [STR-V-176] here?
The IC50 was 64700 ± 7000 nM.

For `CC(=O)OCC1OC(Oc2ccc3cc(-c4cn(CCCCCCC(=O)NO)nn4)ccc3c2)C(OC(C)=O)C(OC(C)=O)C1OC(C)=O` (stereo not drawn) [STR-V-177], which IC50 is on record?
Its IC50 is 39600 ± 600 nM.

tested on: VERO (a normal kidney epithelial cell); test: MTS cell viability assay, 72 h; type: cell-based; settings: Table S2; read-out: Anti-proliferation IC50 VERO
From the text: as §1, §2, §3

Which IC50 does the source give for `CC(=O)OCC1OC(Oc2ccc(-c3cn(CCCCCCC(=O)NO)nn3)cc2)C(OC(C)=O)C(OC(C)=O)C1OC(C)=O` (stereo not drawn) [STR-V-167] here?
Its IC50 is greater than 100000 nM.

For `CC(=O)OCC1OC(Oc2ccc(-c3cn(CCCCCCC(=O)NO)nn3)cc2)C(OC(C)=O)C(OC(C)=O)C1OC(C)=O` (stereo not drawn) [STR-V-176], which IC50 is on record?
Its IC50 is 77400 ± 5600 nM.

With `CC(=O)OCC1OC(Oc2ccc3cc(-c4cn(CCCCCCC(=O)NO)nn4)ccc3c2)C(OC(C)=O)C(OC(C)=O)C1OC(C)=O` (stereo not drawn) [STR-V-177] as the compound, how does the IC50 read?
Its IC50 is 19200 ± 900 nM.

tested on: Hep-G2 (HCC); test: MTS cell viability assay, 72 h; type: cell-based, human; settings: Table S2; read-out: Anti-proliferation IC50 Hep-G2
From the text: as §1, §2, §3

For `CC(=O)OCC1OC(Oc2ccc(-c3cn(CCCCCCC(=O)NO)nn3)cc2)C(OC(C)=O)C(OC(C)=O)C1OC(C)=O` (stereo not drawn) [STR-V-167], which IC50 is on record?
Its IC50 is 10100 ± 1200 nM.

With `CC(=O)OCC1OC(Oc2ccc(-c3cn(CCCCCCC(=O)NO)nn3)cc2)C(OC(C)=O)C(OC(C)=O)C1OC(C)=O` (stereo not drawn) [STR-V-176] as the compound, how does the IC50 read?
Its IC50 is 8000 ± 900 nM.

For `CC(=O)OCC1OC(Oc2ccc3cc(-c4cn(CCCCCCC(=O)NO)nn4)ccc3c2)C(OC(C)=O)C(OC(C)=O)C1OC(C)=O` (stereo not drawn) [STR-V-177], which IC50 is on record?
Its IC50 is 7400 ± 900 nM.

same assay, conditions: ratio of VERO to Hep-G2 cytotoxicity

For `CC(=O)OCC1OC(Oc2ccc(-c3cn(CCCCCCC(=O)NO)nn3)cc2)C(OC(C)=O)C(OC(C)=O)C1OC(C)=O` (stereo not drawn) [STR-V-176], which “Hep-G2-selectivity (VERO/Hep-G2)” value is on record?
The value was 10 fold.

tested on: HCC; test: not given; design: method as in PMID 22915658; settings: HCC patients on belinostat treatment, NCT00321594; cited from earlier work

For `O=C(/C=C/c1cccc(S(=O)(=O)Nc2ccccc2)c1)NO` [belinostat], which “Median overall survival (OS)” value is on record?
The value was 6.60 months.

What about the “Median progression-free survival (PFS)” value of the same compound?
Its value is 2.64 months.

molecular target: HDAC1 (Homo sapiens, UniProt Q13547); test: HDAC isoform inhibition (BPS Bioscience); settings: read-out: HDAC1 IC50; Table S1
Sequence (Q13547 whole entry, canonical isoform): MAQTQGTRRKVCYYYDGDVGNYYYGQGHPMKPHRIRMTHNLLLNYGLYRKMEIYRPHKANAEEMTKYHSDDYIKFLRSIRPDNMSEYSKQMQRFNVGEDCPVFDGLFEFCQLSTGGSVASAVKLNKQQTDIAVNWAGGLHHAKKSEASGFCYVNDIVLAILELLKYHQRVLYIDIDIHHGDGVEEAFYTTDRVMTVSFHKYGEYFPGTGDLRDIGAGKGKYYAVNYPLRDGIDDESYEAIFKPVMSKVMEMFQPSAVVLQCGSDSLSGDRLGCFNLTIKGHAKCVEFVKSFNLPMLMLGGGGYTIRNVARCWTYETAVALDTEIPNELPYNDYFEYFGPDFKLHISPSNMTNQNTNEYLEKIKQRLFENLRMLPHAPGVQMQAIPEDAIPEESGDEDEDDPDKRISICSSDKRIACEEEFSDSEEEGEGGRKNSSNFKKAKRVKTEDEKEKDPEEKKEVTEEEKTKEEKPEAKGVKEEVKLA

Which IC50 does the source give for `CC(=O)OCC1OC(Oc2ccc(-c3cn(CCCCCCC(=O)NO)nn3)cc2)C(OC(C)=O)C(OC(C)=O)C1OC(C)=O` (stereo not drawn) [STR-V-167] here?
Its IC50 is 31.8 nM.

Which IC50 does the source give for `CC(=O)OCC1OC(Oc2ccc(-c3cn(CCCCCCC(=O)NO)nn3)cc2)C(OC(C)=O)C(OC(C)=O)C1OC(C)=O` (stereo not drawn) [STR-V-176] here?
Its IC50 is 1.43 nM.

With `CC(=O)OCC1OC(Oc2ccc3cc(-c4cn(CCCCCCC(=O)NO)nn4)ccc3c2)C(OC(C)=O)C(OC(C)=O)C1OC(C)=O` (stereo not drawn) [STR-V-177] as the compound, how does the IC50 read?
Its IC50 is 2.2 nM.

molecular target: HDAC2 (Homo sapiens, UniProt Q92769); test: HDAC isoform inhibition (BPS Bioscience); settings: read-out: HDAC2 IC50; Table S1
Sequence (Q92769 whole entry, canonical isoform): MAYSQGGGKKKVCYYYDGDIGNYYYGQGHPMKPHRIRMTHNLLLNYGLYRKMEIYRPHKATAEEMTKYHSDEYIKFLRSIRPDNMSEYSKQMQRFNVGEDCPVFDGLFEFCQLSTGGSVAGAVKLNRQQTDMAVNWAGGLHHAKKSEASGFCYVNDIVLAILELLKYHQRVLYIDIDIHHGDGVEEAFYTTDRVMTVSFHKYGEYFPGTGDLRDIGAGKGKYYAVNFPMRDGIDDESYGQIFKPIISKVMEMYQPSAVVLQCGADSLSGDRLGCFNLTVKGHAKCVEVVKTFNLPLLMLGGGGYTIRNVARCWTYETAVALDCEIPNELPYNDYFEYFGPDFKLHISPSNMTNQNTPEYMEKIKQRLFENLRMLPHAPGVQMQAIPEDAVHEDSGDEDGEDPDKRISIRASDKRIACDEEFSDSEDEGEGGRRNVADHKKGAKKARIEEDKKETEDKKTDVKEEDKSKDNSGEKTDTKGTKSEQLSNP

For `CC(=O)OCC1OC(Oc2ccc(-c3cn(CCCCCCC(=O)NO)nn3)cc2)C(OC(C)=O)C(OC(C)=O)C1OC(C)=O` (stereo not drawn) [STR-V-167], which IC50 is on record?
Its IC50 is 66.4 nM.

With `CC(=O)OCC1OC(Oc2ccc(-c3cn(CCCCCCC(=O)NO)nn3)cc2)C(OC(C)=O)C(OC(C)=O)C1OC(C)=O` (stereo not drawn) [STR-V-176] as the compound, how does the IC50 read?
The IC50 was 4.2 nM.

For `CC(=O)OCC1OC(Oc2ccc3cc(-c4cn(CCCCCCC(=O)NO)nn4)ccc3c2)C(OC(C)=O)C(OC(C)=O)C1OC(C)=O` (stereo not drawn) [STR-V-177], which IC50 is on record?
Its IC50 is 13.2 nM.

molecular target: T1, HDAC6 (Homo sapiens, UniProt Q9UBN7); test: HDAC isoform inhibition (BPS Bioscience); settings: read-out: HDAC6 IC50; Table S1
T1 sequence (Q9UBN7 1-1215): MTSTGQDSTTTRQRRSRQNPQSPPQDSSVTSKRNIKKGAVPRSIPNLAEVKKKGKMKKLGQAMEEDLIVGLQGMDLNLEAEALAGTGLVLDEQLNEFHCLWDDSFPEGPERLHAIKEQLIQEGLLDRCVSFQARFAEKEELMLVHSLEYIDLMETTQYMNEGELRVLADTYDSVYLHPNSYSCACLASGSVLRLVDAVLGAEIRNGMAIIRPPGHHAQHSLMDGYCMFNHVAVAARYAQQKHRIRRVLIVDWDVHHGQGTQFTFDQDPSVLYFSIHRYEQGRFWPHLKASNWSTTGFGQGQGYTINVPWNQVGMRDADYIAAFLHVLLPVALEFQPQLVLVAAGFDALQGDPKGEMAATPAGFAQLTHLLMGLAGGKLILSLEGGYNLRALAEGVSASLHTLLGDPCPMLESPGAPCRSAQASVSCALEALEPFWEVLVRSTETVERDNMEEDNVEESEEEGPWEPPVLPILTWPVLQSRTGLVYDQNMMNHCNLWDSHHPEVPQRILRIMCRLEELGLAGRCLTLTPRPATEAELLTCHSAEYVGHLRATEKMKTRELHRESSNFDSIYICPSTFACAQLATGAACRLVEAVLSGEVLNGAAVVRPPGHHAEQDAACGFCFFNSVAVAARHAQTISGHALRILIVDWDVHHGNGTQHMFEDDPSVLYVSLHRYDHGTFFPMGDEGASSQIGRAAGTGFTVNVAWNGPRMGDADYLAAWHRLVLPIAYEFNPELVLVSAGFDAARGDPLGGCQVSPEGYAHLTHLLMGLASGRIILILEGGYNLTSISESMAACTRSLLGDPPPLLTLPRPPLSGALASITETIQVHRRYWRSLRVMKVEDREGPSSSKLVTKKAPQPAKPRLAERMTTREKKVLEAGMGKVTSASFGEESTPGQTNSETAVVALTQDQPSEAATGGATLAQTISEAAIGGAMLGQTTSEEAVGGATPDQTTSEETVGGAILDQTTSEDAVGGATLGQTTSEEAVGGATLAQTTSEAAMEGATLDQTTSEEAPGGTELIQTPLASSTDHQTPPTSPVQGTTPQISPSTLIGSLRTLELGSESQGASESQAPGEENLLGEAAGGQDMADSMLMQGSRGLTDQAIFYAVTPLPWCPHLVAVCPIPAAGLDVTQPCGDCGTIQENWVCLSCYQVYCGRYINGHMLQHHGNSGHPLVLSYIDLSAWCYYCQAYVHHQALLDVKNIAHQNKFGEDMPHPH

With `CC(=O)OCC1OC(Oc2ccc(-c3cn(CCCCCCC(=O)NO)nn3)cc2)C(OC(C)=O)C(OC(C)=O)C1OC(C)=O` (stereo not drawn) [STR-V-167] as the compound, how does the IC50 read?
The IC50 was 2.61 nM.

With `CC(=O)OCC1OC(Oc2ccc(-c3cn(CCCCCCC(=O)NO)nn3)cc2)C(OC(C)=O)C(OC(C)=O)C1OC(C)=O` (stereo not drawn) [STR-V-176] as the compound, how does the IC50 read?
The IC50 was 1.05 nM.

For `CC(=O)OCC1OC(Oc2ccc3cc(-c4cn(CCCCCCC(=O)NO)nn4)ccc3c2)C(OC(C)=O)C(OC(C)=O)C1OC(C)=O` (stereo not drawn) [STR-V-177], which IC50 is on record?
The IC50 was 1.65 nM.

molecular target: T2, HDAC8 (Homo sapiens, UniProt Q9BY41); test: HDAC isoform inhibition (BPS Bioscience); settings: read-out: HDAC8 IC50; Table S1
T2 sequence (Q9BY41 1-377): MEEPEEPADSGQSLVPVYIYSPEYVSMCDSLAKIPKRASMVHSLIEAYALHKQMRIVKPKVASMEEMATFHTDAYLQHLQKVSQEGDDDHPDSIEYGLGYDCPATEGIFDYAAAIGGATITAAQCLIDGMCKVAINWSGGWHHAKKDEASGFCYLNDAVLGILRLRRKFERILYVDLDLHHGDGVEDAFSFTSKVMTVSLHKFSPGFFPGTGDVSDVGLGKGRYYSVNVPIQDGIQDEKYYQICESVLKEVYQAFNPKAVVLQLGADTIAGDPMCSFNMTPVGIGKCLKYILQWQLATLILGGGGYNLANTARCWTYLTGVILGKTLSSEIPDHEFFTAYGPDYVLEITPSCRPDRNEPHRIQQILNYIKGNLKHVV

With `CC(=O)OCC1OC(Oc2ccc(-c3cn(CCCCCCC(=O)NO)nn3)cc2)C(OC(C)=O)C(OC(C)=O)C1OC(C)=O` (stereo not drawn) [STR-V-167] as the compound, how does the IC50 read?
Its IC50 is 311 nM.

Which IC50 does the source give for `CC(=O)OCC1OC(Oc2ccc(-c3cn(CCCCCCC(=O)NO)nn3)cc2)C(OC(C)=O)C(OC(C)=O)C1OC(C)=O` (stereo not drawn) [STR-V-176] here?
Its IC50 is 271 nM.

Which IC50 does the source give for `CC(=O)OCC1OC(Oc2ccc3cc(-c4cn(CCCCCCC(=O)NO)nn4)ccc3c2)C(OC(C)=O)C(OC(C)=O)C1OC(C)=O` (stereo not drawn) [STR-V-177] here?
Its IC50 is 718 nM.
